Reference: patent publication US11492345B2, “Compounds and their methods of use” (Praxis Precision Medicines, Inc., priority 2017, dated 2022)

Biological target: T1, human Nav1.6 (hNav1.6) (Homo sapiens, UniProt Q9UQD0)
T1 construct: expressed in transfected cells; host or cells: HEK-293 (G418 selection)
Assay: Modulation of late sodium current (INaL), PatchXpress electrophysiology
Format: cell-based
Details: HEK293; 1 μM compound; HEK-293 cells expressing recombinant human Nav channel; late current evoked by 300 nM ATX-II; steady-state inhibition; read-out: INaL v1.6 (1 μM, % Inhibition)
Description: Functional characterization of exemplary compounds to modulate INaL expressed by the Nav1.6 voltage-gated sodium channel was accomplished using the PatchXpress™ high throughput electrophysiology platform (Molecular Devices, Sunnyvale, Calif.). HEK-293 cells expressing recombinant, human Nav1.6 (hNav1.6) were grown in DMEM/high-glucose Dulbecco's modified, 10% FBS, 2 mM sodium pyruvate, 10 mM HEPES and 400 μg/mL G418. Cells were grown to 50%-80% confluency prior to harvesting. Trypsinized cells were washed, allowed to recover for 1 hour and then resuspended in extracellular recording solution at a concentration of 1×10^6 cells/ml. The onboard liquid handling facility of the PatchXpress was used for dispensing cells and applying test compounds. Nav late currents were evoked by the application of 300 nM ATX-II. INaL was evoked by depolarizing pulses to 0 mV for 200 ms from a non-inactivating holding potential (e.g., −120 mV) at a frequency of 0.1 Hz. INaL amplitude and stability were determined by analyzing the mean current amplitude over the final 20 ms of the test pulse. […] Percent steady-state inhibition of INaL was calculated as: [(INaL_compound)/(INaL_control)]*100, where INaL_compound and INaL_control represent INaL recorded in the presence or absence of compound, respectively.

T1 sequence (Q9UQD0 whole entry): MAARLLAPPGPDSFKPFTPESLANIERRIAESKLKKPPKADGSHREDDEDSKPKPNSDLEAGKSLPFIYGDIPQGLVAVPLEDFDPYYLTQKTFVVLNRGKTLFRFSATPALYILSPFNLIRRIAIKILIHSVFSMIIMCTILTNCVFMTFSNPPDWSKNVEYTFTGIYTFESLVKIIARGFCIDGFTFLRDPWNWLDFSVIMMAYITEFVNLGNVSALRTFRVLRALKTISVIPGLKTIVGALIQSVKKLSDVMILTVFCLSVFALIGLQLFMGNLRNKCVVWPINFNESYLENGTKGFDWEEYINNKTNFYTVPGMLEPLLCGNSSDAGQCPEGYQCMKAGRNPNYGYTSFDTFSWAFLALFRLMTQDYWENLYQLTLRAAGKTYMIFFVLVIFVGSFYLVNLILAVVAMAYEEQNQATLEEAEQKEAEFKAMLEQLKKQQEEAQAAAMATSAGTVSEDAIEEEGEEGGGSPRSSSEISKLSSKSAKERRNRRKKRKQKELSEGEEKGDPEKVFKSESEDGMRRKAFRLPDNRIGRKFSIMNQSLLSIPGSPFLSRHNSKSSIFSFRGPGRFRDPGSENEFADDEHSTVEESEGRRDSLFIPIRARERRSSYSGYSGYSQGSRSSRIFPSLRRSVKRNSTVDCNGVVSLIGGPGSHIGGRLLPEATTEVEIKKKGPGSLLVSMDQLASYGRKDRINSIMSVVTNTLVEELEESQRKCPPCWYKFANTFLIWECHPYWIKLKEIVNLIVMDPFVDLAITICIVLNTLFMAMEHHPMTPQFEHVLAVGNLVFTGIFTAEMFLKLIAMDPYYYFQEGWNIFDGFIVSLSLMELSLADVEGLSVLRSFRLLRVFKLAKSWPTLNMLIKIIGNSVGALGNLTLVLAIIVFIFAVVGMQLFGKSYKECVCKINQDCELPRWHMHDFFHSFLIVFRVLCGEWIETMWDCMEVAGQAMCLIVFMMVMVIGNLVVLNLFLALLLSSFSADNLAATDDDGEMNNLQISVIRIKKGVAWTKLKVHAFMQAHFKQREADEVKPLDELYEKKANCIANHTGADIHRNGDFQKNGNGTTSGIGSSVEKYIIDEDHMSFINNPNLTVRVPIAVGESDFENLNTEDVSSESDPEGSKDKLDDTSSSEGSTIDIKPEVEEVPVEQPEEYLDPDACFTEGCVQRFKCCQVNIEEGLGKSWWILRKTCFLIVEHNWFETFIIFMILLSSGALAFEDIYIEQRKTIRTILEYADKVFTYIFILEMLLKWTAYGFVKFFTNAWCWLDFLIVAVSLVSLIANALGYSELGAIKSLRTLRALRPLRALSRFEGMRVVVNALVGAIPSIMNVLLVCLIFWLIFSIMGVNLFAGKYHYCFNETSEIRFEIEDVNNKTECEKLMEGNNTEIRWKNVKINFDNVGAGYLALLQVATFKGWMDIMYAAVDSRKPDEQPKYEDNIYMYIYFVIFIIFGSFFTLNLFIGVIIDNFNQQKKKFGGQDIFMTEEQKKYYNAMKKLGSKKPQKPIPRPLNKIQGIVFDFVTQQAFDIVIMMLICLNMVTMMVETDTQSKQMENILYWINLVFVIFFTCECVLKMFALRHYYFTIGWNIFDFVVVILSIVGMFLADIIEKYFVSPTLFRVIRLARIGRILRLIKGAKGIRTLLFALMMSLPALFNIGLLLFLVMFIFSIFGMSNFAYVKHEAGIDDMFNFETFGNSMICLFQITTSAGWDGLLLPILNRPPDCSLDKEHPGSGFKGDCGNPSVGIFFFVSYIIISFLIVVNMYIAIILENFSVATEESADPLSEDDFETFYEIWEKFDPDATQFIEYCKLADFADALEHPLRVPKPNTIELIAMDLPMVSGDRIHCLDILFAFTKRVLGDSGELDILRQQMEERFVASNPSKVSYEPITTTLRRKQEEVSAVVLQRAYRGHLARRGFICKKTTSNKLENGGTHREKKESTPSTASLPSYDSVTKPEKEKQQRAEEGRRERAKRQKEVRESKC

inhibition at 1 µM [%]	SMILES
30 to 70	O=c1oc2ccc(-c3ccc(OC(F)(F)F)cc3)nc2n1C[C@H]1CCCCO1 (single isomer, unassigned) [Compound 54]
30 to 70	O=c1oc2ccc(-c3ccc(OC(F)(F)F)cc3)nc2n1C[C@@H]1CCCCO1 (single isomer, unassigned) [Compound 55]
> 70	O=c1oc2ccc(-c3ccc(OC(F)(F)F)cc3)cc2n1C[C@@H]1CCCCO1 (single isomer, unassigned) [Compound 58]
30 to 70	O=c1oc2ccc(-c3ccc(OC(F)(F)F)cc3)cc2n1C[C@H]1CCCCO1 (single isomer, unassigned) [Compound 59]
> 70	O=c1oc2ccc(-c3ccc(OC(F)(F)F)cc3)nc2n1C[C@@H]1CCOC1 (single isomer, unassigned) [Compound 61]
> 70	O=c1oc2ccc(-c3ccc(OC(F)(F)F)cc3)nc2n1C[C@H]1CCOC1 (single isomer, unassigned) [Compound 62]
> 70	O=c1oc2ccc(-c3ccc(OC(F)(F)F)cc3)nc2n1C[C@@H]1CCCO1 (single isomer, unassigned) [Compound 64]
30 to 70	O=c1oc2ccc(-c3ccc(OC(F)(F)F)cc3)nc2n1C[C@H]1CCCO1 (single isomer, unassigned) [Compound 65]
> 70	O=c1oc2ccc(-c3ccc(OC(F)(F)F)cc3)nc2n1C[C@H]1CCCOC1 (single isomer, unassigned) [Compound 66]
> 70	O=c1oc2ccc(-c3ccc(OC(F)(F)F)cc3)nc2n1C[C@@H]1CCCOC1 (single isomer, unassigned) [Compound 67]
> 70	O=c1oc2ccc(-c3ccc(OC(F)(F)F)cc3)cc2n1C[C@@H]1CCOC1 (single isomer, unassigned) [Compound 69]
30 to 70	O=c1oc2ccc(-c3ccc(OC(F)(F)F)cc3)cc2n1C[C@H]1CCOC1 (single isomer, unassigned) [Compound 70]
> 70	O=c1oc2ccc(-c3ccc(OC(F)(F)F)cc3)cc2n1C[C@H]1CCCOC1 (single isomer, unassigned) [Compound 73]
> 70	C[C@H](O)CCn1c(=O)oc2ccc(-c3ccc(OC(F)(F)F)cc3)nc21 (single isomer, unassigned) [Compound 99]
> 70	C[C@@H](O)CCn1c(=O)oc2ccc(-c3ccc(OC(F)(F)F)cc3)nc21 (single isomer, unassigned) [Compound 100]
> 70	O=c1oc2ccc(-c3ccc(OC(F)(F)F)cc3)nc2n1C[C@H]1CC1(F)F (single isomer, unassigned) [Compound 106]
30 to 70	O=c1oc2ccc(-c3ccc(OC(F)(F)F)cc3)nc2n1C[C@@H]1CC1(F)F (single isomer, unassigned) [Compound 107]
30 to 70	COC[C@@H]1CCN(C(=O)Cn2c(=O)oc3ccc(-c4ccc(OC(F)(F)F)cc4)cc32)C1 (single isomer, unassigned) [Compound 138]
30 to 70	COC[C@H]1CCN(C(=O)Cn2c(=O)oc3ccc(-c4ccc(OC(F)(F)F)cc4)cc32)C1 (single isomer, unassigned) [Compound 139]
> 70	C[C@H](Cn1c(=O)oc2ccc(-c3ccc(OC(F)(F)F)cc3)nc21)c1ncccn1 (single isomer, unassigned) [Compound 149]
30 to 70	C[C@@H](Cn1c(=O)oc2ccc(-c3ccc(OC(F)(F)F)cc3)nc21)c1ncccn1 (single isomer, unassigned) [Compound 150]
30 to 70	O=c1oc2ccc(-c3ccc(OC(F)(F)F)cc3)cc2n1CC(F)(F)F [Compound 2]
> 70	Cc1nnc(CCn2c(=O)oc3ccc(-c4ccc(OC(F)(F)F)cc4)cc32)o1 [Compound 3]
> 70	O=C1Cc2ccc(-c3ccc(OC(F)(F)F)cc3)cc2N1CC(F)(F)F [Compound 4]
> 70	O=c1[nH]c2cc(-c3ccc(OC(F)(F)F)cc3)ccc2o1 [Compound 5, 5-[4-(trifluoromethoxy)phenyl]-3H-1,3-benzoxazol-2-one]

inhibition at 1 µM [%]	SMILES
30 to 70	O=c1oc2ccc(-c3ccc(OCC(F)(F)F)nc3)cc2n1CC(F)(F)F [Compound 6]
> 70	COCc1cc(OC(F)(F)F)ccc1-c1ccc2oc(=O)n(CC(F)(F)F)c2c1 [Compound 7]
< 30	COCCn1c(=O)oc2ccc(-c3ccc(OC(F)(F)F)cc3)cc21 [Compound 9]
> 70	Cn1c(=O)oc2ccc(-c3ccc(OC(F)(F)F)cc3)cc21 [Compound 10]
> 70	CCn1c(=O)oc2ccc(-c3ccc(OC(F)(F)F)cc3)cc21 [Compound 11]
> 70	O=c1oc2ccc(-c3ccc(OC(F)(F)F)cc3)cc2n1CC1CC1 [Compound 12]
< 30	COCCCn1c(=O)oc2ccc(-c3ccc(OC(F)(F)F)cc3)cc21 [Compound 15]
< 30	O=C(O)Cn1c(=O)oc2ccc(-c3ccc(OC(F)(F)F)cc3)cc21 [Compound 16, 2-[2-oxo-5-[4-(trifluoromethoxy)phenyl]-1,3-benzoxazol-3-yl]acetic acid]
30 to 70	O=C(Cn1c(=O)oc2ccc(-c3ccc(OC(F)(F)F)cc3)cc21)N1CCCC1 [Compound 17]
> 70	O=c1oc2ccc(-c3ccc(OC(F)(F)F)cc3)cc2n1CCC1CC1 [Compound 19]
30 to 70	O=c1[nH]c2cc(-c3ccc(OCC(F)(F)F)nc3)ccc2o1 [Compound 20]
30 to 70	Cc1nnc(CCN2C(=O)Cc3ccc(-c4ccc(OC(F)(F)F)cc4)cc32)o1 [Compound 21]
< 30	O=c1oc2ncc(-c3ccc(OC(F)(F)F)cc3)cc2n1CC(F)(F)F [Compound 22]
< 30	O=C(O)CCn1c(=O)oc2ccc(-c3ccc(OC(F)(F)F)cc3)cc21 [Compound 24]
> 70	O=C(CCn1c(=O)oc2ccc(-c3ccc(OC(F)(F)F)cc3)cc21)N1CCCC1 [Compound 26]
> 70	CCN(CC)C(=O)CCn1c(=O)oc2ccc(-c3ccc(OC(F)(F)F)cc3)cc21 [Compound 28]
< 30	O=c1[nH]c2nc(-c3ccc(OC(F)(F)F)cc3)ccc2o1 [Compound 29, 5-[4-(trifluoromethoxy)phenyl]-3H-oxazolo[4,5-b]pyridin-2-one]
30 to 70	O=C1CCCN1CCCn1c(=O)oc2ccc(-c3ccc(OC(F)(F)F)cc3)cc21 [Compound 30]
30 to 70	O=C1OCCN1CCCn1c(=O)oc2ccc(-c3ccc(OC(F)(F)F)cc3)cc21 [Compound 31]
30 to 70	Cn1c(=O)n(CC(F)(F)F)c2cc(-c3ccc(OC(F)(F)F)cc3)ccc21 [Compound 32]
> 70	O=c1oc2ccc(-c3ccc(OC(F)(F)F)cc3)nc2n1CC(F)(F)F [Compound 33]
30 to 70	O=c1oc2ncc(-c3ccc(OC(F)(F)F)cc3)cc2n1Cc1ccccc1 [Compound 34]
30 to 70	O=c1[nH]c2cc(-c3ccc(OC(F)(F)F)cc3)cnc2o1 [Compound 37]
> 70	CCN(CC)C(=O)Cn1c(=O)oc2ccc(-c3ccc(OC(F)(F)F)cc3)cc21 [Compound 39]
30 to 70	O=C(Cn1c(=O)oc2ccc(-c3ccc(OC(F)(F)F)cc3)cc21)N1CCOCC1 [Compound 40]
